In PubChem BioAssay AID1963845 (Molecular Pharmacology Branch, DTP, NCI, 2024):

Tested on: 429239-143-T-J1-PDC complex spheroid viability
Assay: Anticancer human tumor 429239-143-T-J1-PDC patient-derived small cell lung carcinoma cell line growth inhibition [POLQ]
Settings: for IC50: curve of first compound; for viability, T/C: stronger effect = lower value
Procedure, shortened: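 Three-cell-type spheroids modelling solid tumor plus stroma served as the readout system; POL inhibitors were tested individually and in combination, concentration ranges set by clinical Cmax where known.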

[1] = second compound 0.0316 µM, first compound 0.0316 µM
[2] = second compound 0.0316 µM, first compound 0.1 µM
[3] = second compound 0.0316 µM, first compound 0.316 µM
[4] = second compound 0.0316 µM, first compound 1 µM
[5] = second compound 0.0316 µM, first compound 3.16 µM
[6] = second compound 0.0316 µM, first compound 10 µM
[7] = second compound 0.1 µM, first compound 0.0316 µM
[8] = second compound 0.1 µM, first compound 0.1 µM
[9] = second compound 0.1 µM, first compound 0.316 µM
[10] = second compound 0.1 µM, first compound 1 µM
[11] = second compound 0.1 µM, first compound 3.16 µM
[12] = second compound 0.1 µM, first compound 10 µM
[13] = second compound 0.316 µM, first compound 0.0316 µM
[14] = second compound 0.316 µM, first compound 0.1 µM
[15] = second compound 0.316 µM, first compound 0.316 µM
[16] = second compound 0.316 µM, first compound 1 µM
[17] = second compound 0.316 µM, first compound 3.16 µM
[18] = second compound 0.316 µM, first compound 10 µM
[19] = second compound 1 µM, first compound 0.0316 µM
[20] = second compound 1 µM, first compound 0.1 µM
[21] = second compound 1 µM, first compound 0.316 µM
[22] = second compound 1 µM, first compound 1 µM
[23] = second compound 1 µM, first compound 3.16 µM
[24] = second compound 1 µM, first compound 10 µM
[25] = second compound 3.16 µM, first compound 0.0316 µM
[26] = second compound 3.16 µM, first compound 0.1 µM
[27] = second compound 3.16 µM, first compound 0.316 µM
[28] = second compound 3.16 µM, first compound 1 µM
[29] = second compound 3.16 µM, first compound 3.16 µM
[30] = second compound 3.16 µM, first compound 10 µM
[31] = second compound 10 µM, first compound 0.0316 µM
[32] = second compound 10 µM, first compound 0.1 µM
[33] = second compound 10 µM, first compound 0.316 µM
[34] = second compound 10 µM, first compound 1 µM
[35] = second compound 10 µM, first compound 3.16 µM
[36] = second compound 10 µM, first compound 10 µM
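Further: luminescence signal used as surrogate measure of viable cells; spheroids exposed to compounds for seven days before readout.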
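Wherever viability, T/C is given: 100% = DMSO vehicle control viability as luminescence relative to vehicle.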

CC(=O)O[C@H]1C(=O)[C@@]2(C)[C@H]([C@H](OC(=O)c3ccccc3)[C@]3(O)C[C@H](OC(=O)[C@H](O)[C@@H](NC(=O)c4ccccc4)c4ccccc4)C(C)=C1C3(C)C)[C@]1(OC(C)=O)CO[C@@H]1C[C@@H]2O + COC1C(OC(N)=O)C(O)C(Oc2ccc3c(O)c(NC(=O)c4ccc(O)c(CC=C(C)C)c4)c(=O)oc3c2C)OC1(C)C
IC50 (second compound 0.0316 µM): < 9.49 nM | IC50 (second compound 0.1 µM): < 9.49 nM | IC50 (second compound 0.316 µM): < 9.49 nM | IC50 (second compound 1 µM): < 9.49 nM | IC50 (second compound 3.16 µM): < 9.49 nM | IC50 (second compound 10 µM): < 9.49 nM | viability, T/C (second compound 0.0316 µM, first compound 0.00949 µM): 12.5% | viability, T/C (second compound 0.0316 µM, first compound 0.03 µM): 12.8% | viability, T/C (second compound 0.0316 µM, first compound 0.0949 µM): 10.9% | viability, T/C (second compound 0.0316 µM, first compound 0.3 µM): 13.6% | viability, T/C (second compound 0.0316 µM, first compound 0.949 µM): 11.8% | viability, T/C (second compound 0.0316 µM, first compound 3 µM): 13.3% | viability, T/C (second compound 0.1 µM, first compound 0.00949 µM): 14.8% | viability, T/C (second compound 0.1 µM, first compound 0.03 µM): 13.2% | viability, T/C (second compound 0.1 µM, first compound 0.0949 µM): 13.4% | viability, T/C (second compound 0.1 µM, first compound 0.3 µM): 11.5% | viability, T/C (second compound 0.1 µM, first compound 0.949 µM): 12.4% | viability, T/C (second compound 0.1 µM, first compound 3 µM): 14.3% | viability, T/C (second compound 0.316 µM, first compound 0.00949 µM): 13.8% | viability, T/C (second compound 0.316 µM, first compound 0.03 µM): 11.2% | viability, T/C (second compound 0.316 µM, first compound 0.0949 µM): 11.2% | viability, T/C (second compound 0.316 µM, first compound 0.3 µM): 11.3% | viability, T/C (second compound 0.316 µM, first compound 0.949 µM): 12.4% | viability, T/C (second compound 0.316 µM, first compound 3 µM): 12.2% | viability, T/C (second compound 1 µM, first compound 0.00949 µM): 12.5% | viability, T/C (second compound 1 µM, first compound 0.03 µM): 12.4% | viability, T/C (second compound 1 µM, first compound 0.0949 µM): 12.6% | viability, T/C (second compound 1 µM, first compound 0.3 µM): 11.6% | viability, T/C (second compound 1 µM, first compound 0.949 µM): 14.2% | viability, T/C (second compound 1 µM, first compound 3 µM): 13.9% | viability, T/C (second compound 3.16 µM, first compound 0.00949 µM): 15.9% | viability, T/C (second compound 3.16 µM, first compound 0.03 µM): 12.6% | viability, T/C (second compound 3.16 µM, first compound 0.0949 µM): 12% | viability, T/C (second compound 3.16 µM, first compound 0.3 µM): 11.3% | viability, T/C (second compound 3.16 µM, first compound 0.949 µM): 15.8% | viability, T/C (second compound 3.16 µM, first compound 3 µM): 13.8% | viability, T/C (second compound 10 µM, first compound 0.00949 µM): 14.8% | viability, T/C (second compound 10 µM, first compound 0.03 µM): 12.8% | viability, T/C (second compound 10 µM, first compound 0.0949 µM): 12.1% | viability, T/C (second compound 10 µM, first compound 0.3 µM): 12.8% | viability, T/C (second compound 10 µM, first compound 0.949 µM): 12.6% | viability, T/C (second compound 10 µM, first compound 3 µM): 13.3%

COc1cc(C2c3cc4c(cc3C(OC3OC5COC(C)OC5C(O)C3O)C3COC(=O)C23)OCO4)cc(OC)c1O (stereo unspecified) + Nc1ccc(C#CCN(C(=O)Cc2ncc(C(F)(F)F)cc2C(F)(F)F)c2ccc(F)cc2)nn1
IC50 (second compound 0.0316 µM): 506 nM | IC50 (second compound 0.1 µM): 489 nM | IC50 (second compound 0.316 µM): 514 nM | IC50 (second compound 1 µM): 463 nM | IC50 (second compound 3.16 µM): 486 nM | IC50 (second compound 10 µM): 444 nM | viability, T/C [1]: 106% | viability, T/C [2]: 103% | viability, T/C [3]: 76.4% | viability, T/C [4]: 11.7% | viability, T/C [5]: 6.31% | viability, T/C [6]: 7.42% | viability, T/C [7]: 103% | viability, T/C [8]: 99.5% | viability, T/C [9]: 73% | viability, T/C [10]: 12% | viability, T/C [11]: 7.16% | viability, T/C [12]: 6.74% | viability, T/C [13]: 104% | viability, T/C [14]: 105% | viability, T/C [15]: 77.2% | viability, T/C [16]: 12.9% | viability, T/C [17]: 5.81% | viability, T/C [18]: 7.82% | viability, T/C [19]: 92.5% | viability, T/C [20]: 95.3% | viability, T/C [21]: 68.5% | viability, T/C [22]: 12.6% | viability, T/C [23]: 7.75% | viability, T/C [24]: 8.54% | viability, T/C [25]: 100% | viability, T/C [26]: 95.2% | viability, T/C [27]: 71.3% | viability, T/C [28]: 14.6% | viability, T/C [29]: 5.65% | viability, T/C [30]: 8.11% | viability, T/C [31]: 100% | viability, T/C [32]: 96.1% | viability, T/C [33]: 66.1% | viability, T/C [34]: 11.5% | viability, T/C [35]: 5.67% | viability, T/C [36]: 7.88%

CC1COCCN1c1cc(C2(S(C)(=N)=O)CC2)nc(-c2ccnc3[nH]ccc23)n1 (stereo unspecified) + Nc1ccc(C#CCN(C(=O)Cc2ncc(C(F)(F)F)cc2C(F)(F)F)c2ccc(F)cc2)nn1
IC50 (second compound 0.0316 µM): > 10000 nM | IC50 (second compound 0.1 µM): 9980 nM | IC50 (second compound 0.316 µM): 9920 nM | IC50 (second compound 1 µM): > 10000 nM | IC50 (second compound 3.16 µM): 8710 nM | IC50 (second compound 10 µM): 7190 nM | viability, T/C [1]: 90.4% | viability, T/C [2]: 105% | viability, T/C [3]: 100% | viability, T/C [4]: 91% | viability, T/C [5]: 80.4% | viability, T/C [6]: 53.3% | viability, T/C [7]: 109% | viability, T/C [8]: 104% | viability, T/C [9]: 94.6% | viability, T/C [10]: 95.2% | viability, T/C [11]: 84.8% | viability, T/C [12]: 49% | viability, T/C [13]: 99.9% | viability, T/C [14]: 97.7% | viability, T/C [15]: 97.2% | viability, T/C [16]: 92.5% | viability, T/C [17]: 77.2% | viability, T/C [18]: 49.6% | viability, T/C [19]: 113% | viability, T/C [20]: 91.2% | viability, T/C [21]: 90.2% | viability, T/C [22]: 90.2% | viability, T/C [23]: 79.2% | viability, T/C [24]: 51.6% | viability, T/C [25]: 99.1% | viability, T/C [26]: 86.8% | viability, T/C [27]: 90.7% | viability, T/C [28]: 95.2% | viability, T/C [29]: 79.6% | viability, T/C [30]: 46% | viability, T/C [31]: 95.5% | viability, T/C [32]: 91.4% | viability, T/C [33]: 101% | viability, T/C [34]: 83.9% | viability, T/C [35]: 79.7% | viability, T/C [36]: 38.5%
